Assay results published in patent US11865129B2, “Application of anemoside B4 in preparation of a drug for treatment or prevention of psoriasis” (GUANGXI XINHAI PHARMACEUTICAL TECHNOLOGY CO., LTD., priority 2021, dated 2024).

Tests used:
IL-17 [1] = assay: IL-17 level in serum by ELISA, psoriasis model rats; type: in vivo, SD male rats; settings: 7 days, vs model control group
Procedure: 60 SPF-grade SD male rats in the second animal group are divided into 6 groups: a blank control group, a model control group, an anemoside B4 intragastric administration group (5 mg/kg), an anemoside B4 intragastric administration group (10 mg/kg), an anemoside B4 intragastric administration group (20 mg/kg), and an acitretin intragastric administration group (5 mg/kg), and are respectively expressed into the blank control group, the model group, anemoside B4 5 mg/kg, anemoside B4 10 mg/kg, anemoside B4 20 mg/kg, and acitretin 5 mg/kg in FIGS. 3, 4 and 5 for convenience. A shaving area on the back of the rats in each group is 2.5 cm×3 cm, and the vellus is removed with mild depilatory cream. The rats of each group except the blank control group are modeled by administrating 62.5 mg 5% imiquimod cream on the shaving area until the skin is thickened and has erythema and silver scales for modeling completely.
5% imiquimod cream is administrated once a day, and continuously administrated for 8 days for model establishment. On the second day, the rats in each group are continuously intragastric (i.g.) administered drugs for 7 days.
After administration, blood is taken from abdominal aorta of the rats in each group of the second animal group, centrifuged to collect the serum, and measured the M-CSF, VEGF, IL-6 and IL-17 level in the serum by ELISA kits according to the procedures of specification.

IL-6 = IL-6 level in skin tissue, psoriasis model mice; type: in vivo, BALB/c male mice; settings: 12 days, compared with model control group
Procedure: (§1) A shaving area on the back of the mice in each group is 2.5 cm×3 cm, and the vellus is removed with mild depilatory cream. The mice of each group except the blank control group are modeled by administrating 62.5 mg 5% imiquimod cream on the shaving area until the skin is thickened and has erythema and silver scales for modeling completely. During the model establishment, 5% imiquimod cream is administrated once a day, and continuously administrated for 14 days. On the third day, the model establishment is continued and drugs are administered at the same time, wherein the mice in the AC intragastric administration group (8 mg/kg), the anemoside B4 intragastric (i.g.) administration group (5 mg/kg), the anemoside B4 intragastric administration group (10 mg/kg), and the anemoside B4 intragastric administration group (20 mg/kg) are administrated once a day, and continuously administrated for 12 days. […] The mice in the blank control group and the model control group are applied 62.5 mg Vaseline to the skin lesions once a day, and continuously applied for 12 days. The weight of the mice is recorded for counting the weight change of the mice. 100 mg skin tissue of the mice in each group of the first animal group are precisely weighed, added 0.9 mL ice normal saline, homogenized with the tissue grinder, and centrifuged at 4° C. and 3000 rpm for 10 min. The supernatant is collected, and IL-12, IL-17, IL-6 and IL-1β level in the skin tissue are measured by kits according to the procedures of specification.

IL-17 [2] = assay: IL-17 level in skin tissue, psoriasis model mice; type: in vivo, BALB/c male mice; settings: 12 days, compared with model control group
Procedure: as §1

[3] = intragastric 5 mg/kg once a day
[4] = intragastric 10 mg/kg once a day
[5] = intragastric 20 mg/kg once a day

C=C(C)[C@@H]1CC[C@]2(C(=O)O[C@@H]3O[C@H](CO[C@@H]4O[C@H](CO)[C@@H](O[C@@H]5O[C@@H](C)[C@H](O)[C@@H](O)[C@H]5O)[C@H](O)[C@H]4O)[C@@H](O)[C@H](O)[C@H]3O)CC[C@]3(C)[C@H](CC[C@@H]4[C@@]5(C)CC[C@H](O[C@@H]6OC[C@H](O)[C@H](O)[C@H]6O[C@@H]6O[C@@H](C)[C@H](O)[C@@H](O)[C@H]6O)[C@@](C)(CO)[C@@H]5CC[C@]43C)[C@H]12 [anemoside B4]
IL-17 level in serum (IL-17 [1]; intragastric 5 mg/kg): significantly decreased
IL-17 level in serum (IL-17 [1]; intragastric 10 mg/kg): significantly decreased
IL-17 level in serum (IL-17 [1]; intragastric 20 mg/kg): significantly decreased
level of IL-6 in the skin tissue (IL-6; [3]): significantly reduced
level of IL-6 in the skin tissue (IL-6; [4]): significantly reduced
level of IL-6 in the skin tissue (IL-6; [5]): significantly reduced
level of IL-17 in the skin tissue (IL-17 [2]; [3]): significantly reduced
level of IL-17 in the skin tissue (IL-17 [2]; [4]): significantly reduced
level of IL-17 in the skin tissue (IL-17 [2]; [5]): significantly reduced
